≈ marks a conversion by molar mass, not a printed value. Like-named read-outs stand apart in the source and are kept apart here.
Assays:
FimH = FimH (Escherichia coli, UniProt P08191); assay type: binding
Procedure: Journal of the American Society for Mass Spectrometry, 2009. […] Tested compounds were added to wells following with FimH treatment.
Plates were coated with 100 μl of 10 mg/ml solution of RNAse-B in 100 mM carbonate/bicarbonate buffer pH 9.6. […] 2 h. Then washed three times with 10 mM PBS containing 0.05% Tween-20. […] Wells were washed three times with 10 mM PBS+0.05% Tween-20. 100 μl of anti-body conjugated to horseradish peroxidase (1:5000) was added in buffer and incubated for 1 h at room temperature. Then washed three times with 10 mM PBS+0.05% Tween-20. Added 100 μl of TMB and incubated in dark for 2-5 min. The reaction was stopped with 100 μl/well 1N sulfuric acid. Plate absorbance was analyzed at 450 nm using microplate reader.

[1] = system: AIEC LF82 bacteria adhesion to T84 intestinal epithelial cells; test: Adhesion assay on T84 cells, pre-, co- and post-incubation protocols (Example 21.2); assay type: cell-based, Escherichia coli; conditions: for Concentration leading to decreased adhesion levels of at least 50%: pre-incubation assay
Procedure: E. coli strain LF82 was isolated from a chronic ileal lesion of a patient with Crohn's disease (CD). Bacteria were grown routinely in Luria-Bertani (LB) broth overnight at 37° C. Intestinal epithelial cells T84 derived from colonic adenocarcinoma were maintained in an atmosphere containing 5% CO2 at 37° C. in DMEM/F12 (50/50) medium supplemented with 10% (v/v) heat-inactivated fetal calf serum (FCS), 1% L-glutamine, 100 000 U·l^−1 penicillin, 100 mg·l^−1 streptomycin, 25 μg·l^−1 amphotericin B.
T84 were seeded in 48-well plates at a concentration of 1.5×10^5 cells per well and grown for 48 h. AIEC LF82 bacteria were incubated 1 h with each mannoside prior the cell infection (pre-incubation protocol) or they were added simultaneously onto the cells (co-incubation protocol) in complete medium without antibiotics, containing heat inactivated fetal calf serum (FCS). Heptyl-mannose or compound 2 (example 1) were tested at a dose of 100; 10; 1 or 0.1 μM. D-D-mannose was tested at a dose of 10 000; 1 000; 100 or 10 μM and compound 1 (example 2bis) was tested at a concentration of 500; 100; 10 or 1 μM. Cells were infected with AIEC LF82 bacteria at a multiplicity of infection (MOI) of 10 bacteria per cell for 3 h at 37° C. For the post-incubation protocol, mannosides were incubated with cells for 3 h after bacterial infection. A washing step was realized before this post-incubation to eliminate non-adherent bacteria. Monolayers were washed in phosphate-buffered saline (PBS; pH 7.2) and cells were then lysed with 1% Triton X-100 in deionized water. Samples were diluted and plated onto Luria Bertani agar plates to determine the number of colony-forming units (CFU) recovered from the lysed monolayers. Results were expressed as percentages of residual adhesion, considering adhesion level of AIEC LF82 without mannoside treatment as 100%.

bladder cell line 5637 = test: Anti-adhesives for bacterial bladder cell binding; assay type: cell-based; conditions: ten-fold dilution series
Procedure: The anti-adhesive capacities of the HM-derivatized cyclodextrins 1-4 were tested in vitro on the bladder cell line 5637, in a procedure analogous as previously described (Wellens, A. et al., PLoS ONE 3: e2040 (2008)). The CD conjugates 1-4 were diluted in a ten-fold series. The minimum inhibitory concentrations (MIC) indicate the concentrations of sugars at which we see some inhibition of binding of FimH to the bladder cells, they do however not indicate complete inhibition. MIC values for the CD-conjugates 1-4 followed a similar trend as the inhibitory concentrations recorded in HIA.
The anti-adhesive capacities of the n-heptyl α-D-mannoside-derivatized cyclodextrins 1-4 were tested in vitro on the bladder cell line 5637, in a procedure analogous to as described in (Wellens, A. et al., PLoS ONE 3: e2040 (2008)). The ligands have been diluted 10-fold and this is also the resolution limit of these tests.

[2] = system: type-1 piliated clinical E. coli isolate UTI89; test: Haemagglutination inhibition assay (HIA), guinea pig erythrocytes; assay type: cell-based, Escherichia coli; conditions: for MIC: read-out: Minimal inhibitory concentration (MIC) on haemagglutination
Procedure: Haemagglutination is observed as the red blood cells being held in suspension through the formation of a space-filling cross-linked network with the fimbriated bacteria.
The UIT89 clinical isolate was grown statically 37° C. for 48 hours in LB medium and analysed for haemagglutination of guinea pig red blood cells. Both bacteria and red blood cells (RBCs) were washed 3 times in ice-cold PBS (17 mM K/NaH2PO4, 150 mM NaCl). PBS was used for all dilutions. 96-well round-bottom microtiter plates were used for the dilutions. The titer for agglutination was determined in a 2-fold dilution series in PBS of the bacteria in a volume of 25 μL. Well 1 is a negative control without bacteria but 25 μL PBS. 25 μL PBS and 50 μL 5% RBCs were added to a final 100 μL volume. Upon 1 hour at 4° C., the titer was determined as the lowest concentration of bacteria that led to haemagglutination.
A bacterial concentration of twice the determined haemagglutination titer was kept constant in the haemagglutination inhibition assays. First, a 2-fold dilution series of the inhibitory compounds was performed in 25 μL PBS. Instead, in well 1 only 25 μL PBS was added as a negative control. 25 μL of the bacterial solution and 50 μl of 5% red blood cells were added to reach a final volume of 100 μL.

Chain of FimH (P08191 22-300): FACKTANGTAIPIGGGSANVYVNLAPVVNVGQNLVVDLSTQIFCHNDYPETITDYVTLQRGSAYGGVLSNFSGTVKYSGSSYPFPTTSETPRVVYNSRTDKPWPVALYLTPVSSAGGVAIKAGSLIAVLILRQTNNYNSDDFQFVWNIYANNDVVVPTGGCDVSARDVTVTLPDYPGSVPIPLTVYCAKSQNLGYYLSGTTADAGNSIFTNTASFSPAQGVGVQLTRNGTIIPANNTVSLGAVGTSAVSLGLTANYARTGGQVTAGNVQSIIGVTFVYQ

With CCCCCCCO[C@H]1O[C@H](CO)[C@@H](O)[C@H](O)[C@@H]1O [HM, Heptylmannoside, reference compound] the “Inhibition of FimH binding compared to FimH alone” value (FimH; 5 nM) was “significantly inhibited FimH binding”, the “Stability of activity in dissolved form” value (FimH; HM after 1 month storage in dissolved form vs immediately dissolved) was “loosing activity in dissolved form” and the “Concentration leading to decreased adhesion levels of at least 50%” value [1] was 10 µM. For the same compound, the “MIC, anti-adhesive potency on bladder cell line 5637” value (bladder cell line 5637) was 4 µM (≈ 1.11 µg/mL), the “Relative inhibitory potency (RIP), reference 1” value ([2]; RIP (UTI89 1.2 10^9 CFU/ml)) was >16 and the “Relative inhibitory potency (RIP), reference 3” value ([2]; RIP (UTI89 1.2 10^9 CFU/ml)) was 16. The “Relative inhibitory potency (RIP), reference 1” value ([2]; RIP (UTI89 1.4 10^8 CFU/ml)) was 67, the “Relative inhibitory potency (RIP), reference 3” value ([2]; RIP (UTI89 1.4 10^8 CFU/ml)) was 33 and the “Relative inhibitory potency (RIP), reference 1” value ([2]; RIP (UTI89 7 10^7 CFU/ml)) was 64. For the same compound, the “Relative inhibitory potency (RIP), reference 3” value ([2]; RIP (UTI89 7 10^7 CFU/ml)) was 32, the MIC ([2]; UTI89 1.2 10^9 CFU/ml) was 12.5 µM (≈ 3.48 µg/mL) and the MIC ([2]; UTI89 1.4 10^8 CFU/ml) was 1.50 µM (≈ 0.418 µg/mL). The MIC ([2]; UTI89 7 10^7 CFU/ml) was 0.98 µM (≈ 0.273 µg/mL).
For OCC1OC(OCCCCCCCOCc2cn(CC3OC4OC5C(Cn6cc(COCCCCCCCOC7OC(CO)C(O)C(O)C7O)nn6)OC(OC6C(Cn7cc(COCCCCCCCOC8OC(CO)C(O)C(O)C8O)nn7)OC(OC7C(Cn8cc(COCCCCCCCOC9OC(CO)C(O)C(O)C9O)nn8)OC(OC8C(Cn9cc(COCCCCCCCOC%10OC(CO)C(O)C(O)C%10O)nn9)OC(OC9C(Cn%10cc(COCCCCCCCOC%11OC(CO)C(O)C(O)C%11O)nn%10)OC(OC%10C(Cn%11cc(COCCCCCCCOC%12OC(CO)C(O)C(O)C%12O)nn%11)OC(OC3C(O)C4O)C(O)C%10O)C(O)C9O)C(O)C8O)C(O)C7O)C(O)C6O)C(O)C5O)nn2)C(O)C(O)C1O (centres unmarked) [Compound 2], the “Inhibition of oligomannoside binding (FIG. 17)” value (FimH; compounds 1, 2, 6 and HM compared) was “most potent inhibition”, the “Adhesion in the post-incubation protocol” value ([1]; post-incubation, 10 μM) was “significant decreased adhesion” and the “Concentration leading to decreased adhesion levels of at least 50%” value [1] was 0.1 µM. For the same compound, the “MIC, anti-adhesive potency on bladder cell line 5637” value (bladder cell line 5637) was 0.4 µM (≈ 1.45 µg/mL), the MIC ([2]; Escherichia coli, UTI89 1.2 10^9 CFU/ml) was 1.56 µM (≈ 5.67 µg/mL) and the MIC ([2]; Escherichia coli, UTI89 1.4 10^8 CFU/ml) was 0.39 µM (≈ 1.42 µg/mL). The MIC ([2]; Escherichia coli, UTI89 7 10^7 CFU/ml) was 0.24 µM (≈ 0.873 µg/mL), the “Relative inhibitory potency (RIP), reference 1” value ([2]; RIP (UTI89 1.2 10^9 CFU/ml)) was >128 and the “Relative inhibitory potency (RIP), reference HM” value ([2]; RIP (UTI89 1.2 10^9 CFU/ml)) was 8. For the same compound, the “Relative inhibitory potency (RIP), reference 1” value ([2]; RIP (UTI89 1.4 10^8 CFU/ml)) was 256, the “Relative inhibitory potency (RIP), reference HM” value ([2]; RIP (UTI89 1.4 10^8 CFU/ml)) was 3 and the “Relative inhibitory potency (RIP), reference 1” value ([2]; RIP (UTI89 7 10^7 CFU/ml)) was 263. The “Relative inhibitory potency (RIP), reference HM” value ([2]; RIP (UTI89 7 10^7 CFU/ml)) was 4.

Source: patent US10273313B2, “Multimeric mannosides, a process for preparing the same and their uses as a drug” (CENTRE NATIONAL DE LA RECHERCHE SCIENTIFIQUE, priority 2012, dated 2019)
